These results are taken from patent US20050123477A1, “Benzothiazole derivatives for in vivo imaging of amloid plaques” (priority 2002, published 2005).

Data set [1] in a line: Capillary depletion. The following applies: carotid bolus, brain removed ten seconds after injection.
Procedure: Compounds that may appear to cross the blood-brain barrier may be sticking to the vasculature within the brain, rather than entering the brain parenchyma. For this reason a capillary depletion method was employed that separates the capillaries from brain homogenate.
Male Wistar rats weighing 150-250 g were deeply anaesthetised by the administration of 55 mg/kg sodium pentabarbital (Rhone-Meriaux) by intra peritoneal injection. The left common carotid artery was exposed by blunt dissection, and 100 μl of test solution injected in a single bolus into the carotid using a 30G needle and 1ml syringe (injection time ˜1 second). The injectate contained both the test/validation compound and ^14C— or ^3H-Sucrose (Amersham Biosciences) as a non-diffusable standard. Ten seconds after injection, the animal was decapitated and the brain removed. […] Pellet, supernatant and a sample of injection solution were counted on a Rackbeta Excel scintillation counter, after the addition of 10 ml Hionic Fluor scintillant (Packard). ^14C/^3H-Sucrose served to correct for vascular volume of vessels contained in the pellet, and also activity that had leaked from the vasculature into the supernatant during the homogenisation procedure.
Volumes of distribution for pellet and supernatant were calculated as shown below. Data is expressed as ratio of volume of distribution in the supernatant to pellet. […]
The target in data set [2] is T1, fibrillar Beta-Amyloid Protein (BAP 1-40) (Homo sapiens, UniProt P05067).
T1 construct: 25 μl BAP 1-40 (10 mg/ml, Biosource 03-138); purchased Biosource 03-138 (BAP 1-40); 03-243 (biotinylated BAP 1-40)
The experiment in a line: Amyloid binding on SPA beads. The conditions noted are these: 180 minutes at room temperature, equimolar amounts, non-specific binding subtracted. How it is done: The binding of Compound 1 (74 TBq/mmol) was determined compared to the ability of ^125I-beta amyloid protein 1-40 (^125I-BAP 1-40, Amersham Biosciences IM294)) to bind to amyloid 140 fibrils. Amyloid binding was essentially performed as follows.
Three fresh buffer stocks were prepared for experiments: Buffer 1, 50 mM HEPES/0.1 % Bovine Serum Albumin (BSA) pH 7.5; Buffer 2, 50 mM HEPES/0.1% BSA/400 μM ZnCl2 pH 7.5; Buffer 3, 50 mM HEPES/0.1% BSA/100 μM ZnCl2 pH 7.5.
Streptavidin coated scintillation proximity assay beads (SA-SPA beads, Amersham Biosciences) were used to immobilise fibrillar Beta-Amyloid Protein (BAP 1-40). Amyloid coated beads (SPA-BAP) were prepared by incubating 250 μl SA-SPA beads (100 mg/ml) with 250 μl Buffer 2, 425 μl Buffer 1, 50 μl biotinylated BAP 1-40 (0.5 mg/ml, Biosource 03-243), 25 μl BAP 1-40 (10 mg/ml, Biosource 03-138). Non-specific binding SPA beads (SPA-NSB) were prepared to assess the binding of compounds to SPA beads with no associated BAP 1-40 fibrils in the following incubation: 250 μl SA-SPA beads (100 mg/ml) with 250 μL Buffer 2,500 μl Buffer 1.
SPA-BAP and SPA-NSB incubations were left for 24 hours at room temperature and then spun 1.5 ml tubes (eppendorf, Merk, 306/0421/12) for 2 minutes at 1000×g. The supernatants were removed and the beads were washed twice by resuspending them in 1 ml Buffer 3 followed by centrifugation for 2 minutes at 1000×g. Finally, washed SPA-BAP and SPA-NSB beads were resuspended in 1 ml Buffer 3.
Amyloid binding of ^125I-BAP 1-40 and Compound 1 was performed in triplicate in 0.5 ml tubes (eppendorf, Merk, 306/0421/02) by adding 50 μl SPA-BAP beads to 25 μl Buffer 2 and 25 μl labelled compound (^125I-BAP 1-40 or Compound 1). Tubes were then incubated for 180 minutes at room temperature with shaking, followed by centrifugation for 2 minutes at 1000×g. The supernatants were removed and SPA-BAP pellet washed twice with 300 μl Buffer 3 containing 1% TWEEN-20 (Sigma, P7949). Non-specific binding for labelled compounds to the SPA beads was determined using incubations as described above but by substituting SPA-BAP beads with SPA-NSB beads. Radioactivity associated with the washed SPA bead pellets was then determined.
The affinity of labelled compounds for fibrillar BAP 1-40 was estimated by subtracting SPA-NSB associated counts from SPA-BAP associated counts. The binding of labelled compounds was then compared to ^125I-BAP binding, which was taken as being 100%.
In these experiments, ^125-BAP 1-40 or Compound 1 were added in equimolar amounts (between 1-5×10^−11 mmoles per incubation).

The structures appear in SMILES notation.

T1 sequence (P05067 672-711 limits assumed): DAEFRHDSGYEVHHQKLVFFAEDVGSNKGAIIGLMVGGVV

In the case of `Cc1cc(-c2nc3cc([125I])ccc3s2)ccc1N` [Compound 1, 5-[^125I]-iodo-2-(4′-amino-3′-methylphenyl)benzothiazole], in data set [1], the “Ratio of VD supernatant/pellet” value is on record as 7.2. Besides, the “Amyloid binding (% of 125I-BAP 1-40)” value in data set [2] came out at 27%.
